US20110091945A1, “METHODS OF INCREASING BIOMASS PRODUCTIVITY, LIPID INDUCTION, AND CONTROLLING METABOLITES IN ALGAE FOR PRODUCTION OF BIOFUELS USING BIOCHEMICAL STIMULANTS” (priority 2009, published 2011)

Tests used:
[1] = tested on: Chlorella sorokiniana; experiment: Malathion growth study: chlorophyll fluorescence kinetics by PAM; assay type: cell-based, Chlorella sorokiniana (UTEX 2805); details: day 12; for Fv/Fm (maximum photosynthetic efficiency of PSII): control 0.672
Procedure: A 2% neutral lipid corn standard supplied by Ankom was used as an analytical standard. Carbon, hydrogen, nitrogen, and sulfur percentages in the biomass were estimated using a LECO CHNS932 elemental analyzer. • Chlorophyll fluorescence kinetics by PAM: The Pulse-Amplitude-Modulation Fluorometer (Mini-PAM, WALZ GmBH, Effeltrich, Germany) used for chlorophyll a fluorescence measurements were performed in real-time using the mini-PAM's internal halogen light as the actinic light source for fluorescence measurements of maximum photosynthetic yield, effective photosynthetic yield (PSII), electron transfer rate (ETR), photosynthetic quenching (qP) and non photochemical quenching (NPQ). The algal samples were dark adapted for one hour prior to the analysis. A small quantity (2.5 mL) of dark adopted sample in a 10 mm path length cuvette was placed in a dark chamber. The PAM fluorometer was connected to the sample via a fiber optic bundle. After stabilization of the auto fluorescence, the probing light beam was turned on and the baseline fluorescence (Fo) was recorded. A single saturating flash (1 s, 8,000 μmol m^−2 s^−1) was then applied to reach maximal fluorescence (Fm). The maximum photosynthetic efficiency of PSII was estimated as in the following equation for the dark adopted culture:
The induction kinetics were initiated by turning on the actinic light source (100 μmol m^−2 s^−1). During the induction curve under actinic light (AL) exposure, saturating light pulses (1 s; 8,000 μmol m^−2 s^−1) were given every 20 seconds to determine the effective quantum yield (Φ PSII), electron transfer rates (ETR), photochemical (qP) and non-photochemical (NPQ) quenching. The qP value was determined by the PAM data analysis software, which uses Fo as opposed to Fo′ in the equation providing a estimate of qP rather than an absolute measurement using far-red light exposure. These tests were done in duplicates.
• Test strain: Chlorella sorokiniana (UTEX 2805) was obtained from UTEX Culture Collections and maintained in BG11 medium (Stanier et al., (1971) Bacteria Rev. 35: 171-205, incorporated herein in its entirety). The pH of culture medium was adjusted to 7.5±0.2 before inoculation and the alga was maintained in a temperature controlled growth chamber at 25±1° C. and 100±10 μmol m^−2 s^−1 light intensity with 12/12 h L/D cycle provided by cool white fluorescent (6500 K) T-8 bulbs. • Pesticide: A twelve day time-scale growth study was conducted to evaluate the effect of pesticide toxicity on algal growth and metabolism. The pesticide malathion (Spectracide, 50% v/v) was used and added to fresh BG11 medium to obtain final concentrations of 70, 140, 280 and 560 mg of malathion L^−1 for the treatments. […] After sterilization, C. sorokiniana was added as inoculum to obtain an initial biomass concentration of 0.075 g L^−1 in all the treatments in triplicates. The cultures were incubated in the growth chamber as explained above. For each sampling period, three randomly chosen flasks of each treatment were removed and then refrigerated at 4° C. until further analysis.

[2] = tested on: Chlorogloea fritschii; details: cited from earlier work

**Q.** Which “effective photosynthetic yield, higher over the control” value ([1]; 70 mg malathion L^−1) does the source give for `CCOC(=O)CC(SP(=S)(OC)OC)C(=O)OCC` (centres unmarked) [malathion, 2-(dimethoxyphosphinothioylthio)butanedioic acid diethyl ester] here?
**A.** about 1.2 times

**Q.** What about the “electron transfer rate, higher over the control” value ([1]; 70 mg malathion L^−1) of the same compound?
**A.** about 1.2 times

**Q.** What about the “non-photochemical quenching (NPQ) versus control, in words” value ([1]; 70 mg malathion L^−1) of the same compound?
**A.** comparable with the control

**Q.** And the “photochemical quenching, higher over the control” value ([1]; 70 mg malathion L^−1)?
**A.** about 1.2 times

**Q.** What about the “Fv/Fm (maximum photosynthetic efficiency of PSII)” value ([1]; 70 mg malathion L^−1) of the same compound?
**A.** 0.671

**Q.** What about the “effective photosynthetic yield, higher over the control” value ([1]; 140 mg malathion L^−1) of the same compound?
**A.** about 1.2 times

**Q.** And the “electron transfer rate, higher over the control” value ([1]; 140 mg malathion L^−1)?
**A.** about 1.2 times

**Q.** And the “non-photochemical quenching (NPQ), less than the control” value ([1]; 140 mg malathion L^−1)?
**A.** 18%

**Q.** And the “photochemical quenching, higher over the control” value ([1]; 140 mg malathion L^−1)?
**A.** about 1.2 times

**Q.** What about the “Fv/Fm (maximum photosynthetic efficiency of PSII)” value ([1]; 140 mg malathion L^−1) of the same compound?
**A.** 0.641

**Q.** And the “concentration that permanently suppressed the growth” value [2]?
**A.** 200 mg/L
